System: Plasmodium berghei
Experiment: Luciferase/luciferin-expressing antifolate-resistant parasites were used to infect a culture of HepG2 cells that were pre-incubated with compounds. Infected hepatocytes emit light due to the luciferase reaction. Assay results are presented as the percent inhibition of light emission compared to control. […]
Assay type: functional
Settings: sporozoite; for IC50: read-out: LUCIFERASE INFECTION ASSAY - IC50; for IC90: read-out: LUCIFERASE INFECTION ASSAY - IC90

Q: How did the IC50 turn out when `O=c1c2ccc(Cl)cc2nc(-c2cccc(C(F)(F)F)c2)n1O` was run?
A: > 9.69 µM

Q: What about the IC90 of the same compound?
A: > 9.69 µM

Q: How did the IC50 turn out when `CSCc1cc(N2CCOCC2)nc(SCc2ccc(Cl)cc2Cl)n1` was run?
A: > 7.93 µM

Q: What about the IC90 of the same compound?
A: > 7.93 µM

Q: Which results are given for `O=C1C=C(c2ccccc2)C(=O)N1Nc1ccccc1`?
A: IC50: > 12.5 µM; IC90: > 12.5 µM

Q: Which IC50 does the source give for `Cc1ccc(NN2C(=O)C=C(c3ccc(Cl)cc3)C2=O)cc1` here?
A: > 10.6 µM

Q: And the IC90?
A: > 10.6 µM

Q: With `COc1ccc(CNC(N)=O)cc1` as the compound, how does the IC50 read?
A: > 18.3 µM

Q: And the IC90?
A: > 18.3 µM

Q: `CC(c1cccnc1)N(C)C(=O)c1cc(NCc2ccc3c(c2)CCO3)cc(S(=O)(=O)N2CCCC2)c1` (stereo not given) was tested. Which IC50 did it give?
A: > 6.34 µM

Q: What about the IC90 of the same compound?
A: > 6.34 µM

Q: With `FC(F)(F)c1nc2ccccc2n2c(-c3ccc(Br)cc3)nnc12` as the compound, how does the IC50 read?
A: > 8.39 µM

Q: What about the IC90 of the same compound?
A: > 8.39 µM

Q: `CCOC(=O)c1ccc(N/C=C(\C(C)=O)c2ccc(OC)c(OC)c2)cc1` was tested. Which IC50 did it give?
A: > 8.93 µM

Q: What about the IC90 of the same compound?
A: > 8.93 µM

Q: How did the IC50 turn out when `Cc1ccc(C(C)CCN2CCc3c(c(C(=O)NCc4nccs4)nn3CC3CC3)C2)o1` (stereo not given) was run?
A: > 7.28 µM

Q: What about the IC90 of the same compound?
A: > 7.28 µM

Q: What does the source list for `COc1cnc(-c2ccccn2)nc1SCc1ccccc1`?
A: IC50: 9.29 µM; IC90: > 10.7 µM

Q: For `O=C1N(CCCc2cccnc2)C(=O)C2(CCN(Cc3ccsc3)CC2)N1Cc1ccccc1`, which IC50 is on record?
A: > 6.95 µM

Q: And the IC90?
A: > 6.95 µM

Q: For `O=C(c1csc2c1CCCC2)N1CCc2c(c(C(=O)N3CCCC3)nn2Cc2ccncc2)C1`, which IC50 is on record?
A: > 6.94 µM

Q: What about the IC90 of the same compound?
A: > 6.94 µM

Q: `CCC(CC)CN1CCC2(CC1)C(=O)N(Cc1ccc(OC)cc1)C(=O)N2CC(C)C` was tested. Which IC50 did it give?
A: > 7.68 µM

Q: What about the IC90 of the same compound?
A: > 7.68 µM

Q: Which IC50 does the source give for `Cc1ccc(C(C)CCN2CCc3c(c(C(=O)NCc4nccs4)nn3Cc3ccccc3)C2)o1` (stereo not given) here?
A: > 6.74 µM

Q: And the IC90?
A: > 6.74 µM

Q: What does the source list for `CC(C)(C)N1C(=O)CC(=O)CC1c1ccc(Cl)cc1` (stereo not given)?
A: IC50: 9.51 µM; IC90: 11.1 µM

Q: `O=C(NNC(=O)c1[nH]c2ccccc2c1-c1ccccc1)Nc1cccc(C(F)(F)F)c1` was tested. Which IC50 did it give?
A: > 7.53 µM

Q: What about the IC90 of the same compound?
A: > 7.53 µM

Q: For `Cc1ccc(C)c(CN2CCC3(CC2)C(=O)N(CCCc2cccnc2)C(=O)N3Cc2ccccc2)c1`, which IC50 is on record?
A: 4.38 µM

Q: And the IC90?
A: 5.55 µM

Q: Which IC50 does the source give for `COc1ccc(CN2C(=O)N(CC(C)C)C3(CCN(Cc4c[nH]c5ccccc45)CC3)C2=O)cc1` here?
A: 6.77 µM

Q: And the IC90?
A: > 6.95 µM

Q: `O=C(Nc1ccccc1)OCc1cccnc1Sc1ccc(Cl)cc1` was tested. Which IC50 did it give?
A: > 8.9 µM

Q: And the IC90?
A: > 8.9 µM

Q: Which results are given for `COc1ccc(-c2cc3c(n(C)c2=O)CCN(C(=O)C(C)n2nc(C)cc2C)C3)c2ccc(C)nc12` (stereo not given)?
A: IC50: > 6.8 µM; IC90: > 6.8 µM

Q: For `COc1cccc(Cn2nc(C(=O)NC3CC3)c3c2CCN(C(=O)c2cc4ccccc4[nH]2)C3)c1`, which IC50 is on record?
A: > 7.03 µM

Q: What about the IC90 of the same compound?
A: > 7.03 µM

Q: With `O=C(Nc1cc(Cl)cc(Cl)c1)OCc1ccc(Oc2ccccc2)c([N+](=O)[O-])c1` as the compound, how does the IC50 read?
A: > 7.62 µM

Q: What about the IC90 of the same compound?
A: > 7.62 µM

Q: For `FC(F)(F)c1cnc(/C=N/Nc2ncc(C(F)(F)F)cc2Cl)c(Cl)c1`, which IC50 is on record?
A: 2.69 µM

Q: What about the IC90 of the same compound?
A: 3.13 µM

Q: What does the source list for `CCOC(=O)c1nn(CC2CC2)c2c1CN(CC(C)Cc1ccc3c(c1)OCO3)CC2` (stereo not given)?
A: IC50: > 7.76 µM; IC90: > 7.76 µM

Q: Which IC50 does the source give for `Cc1cc2c(cc1C)NC(c1c(O)ccc3ccccc13)C1C(=O)CC(C)(C)CC1=N2` (stereo not given) here?
A: 7.67 µM

Q: What about the IC90 of the same compound?
A: > 8 µM

Q: With `CCOc1ccc(C2NC(=O)NC(C)=C2C(=O)OCC2CCCO2)cc1OC` (stereo not given) as the compound, how does the IC50 read?
A: > 8.45 µM

Q: And the IC90?
A: > 8.45 µM

Q: Which results are given for `Cc1ccc(C(=O)C(/C=N/N)=N/Nc2cc(Cl)cc(Cl)c2)cc1`?
A: IC50: 9.09 µM; IC90: > 9.45 µM

Q: With `FC(F)(F)c1nc2ccccc2nc1N/N=C/C=C/c1ccccc1` as the compound, how does the IC50 read?
A: > 9.64 µM

Q: And the IC90?
A: > 9.64 µM

Q: Which IC50 does the source give for `COC(=O)c1c(NC(C)=O)c2cc(NC(C)Cc3ccccc3F)cnc2n1CCC(C)C` (stereo not given) here?
A: > 7.26 µM

Q: What about the IC90 of the same compound?
A: > 7.26 µM

Q: With `CNc1cc(CSCc2ccc(Cl)cc2)nc(-c2ccccc2)n1` as the compound, how does the IC50 read?
A: > 9.27 µM

Q: And the IC90?
A: > 9.27 µM

Q: Which results are given for `O=c1c(NS(=O)(=O)c2ccc(Cl)cc2)cccn1Cc1ccc(Cl)c(Cl)c1`?
A: IC50: > 7.44 µM; IC90: > 7.44 µM

Q: Which results are given for `Cc1ccc(NC(=O)c2cccn(Cc3ccc(C(F)(F)F)cc3)c2=O)cc1C`?
A: IC50: > 8.24 µM; IC90: > 8.24 µM

Q: How did the IC50 turn out when `O=C(Nc1ccc(F)cc1F)c1nnsc1S(=O)(=O)c1ccc(Cl)cc1` was run?
A: > 7.94 µM

Q: What about the IC90 of the same compound?
A: > 7.94 µM

Q: What does the source list for `CN1CCN(S(=O)(=O)c2cc(C(=O)NCc3ccccc3F)cc(-c3ccccc3)c2)CC1`?
A: IC50: 6.09 µM; IC90: > 7.06 µM

Q: Which IC50 does the source give for `COc1ccc(S(=O)(=O)NN(C)c2nc3ccccc3nc2C(F)(F)F)cc1` here?
A: 5.18 µM

Q: What about the IC90 of the same compound?
A: > 8 µM

Q: `COC(=O)c1c(NC(C)=O)c2cc(NC(C)CC(C)C)cnc2n1CCC(C)C` (stereo not given) was tested. Which IC50 did it give?
A: > 8.2 µM

Q: And the IC90?
A: > 8.2 µM

Q: `CN1C(=O)N(CCc2ccccc2)C(=O)C12CCN(Cc1ccc3c(c1)Cc1ccccc1-3)CC2` was tested. Which IC50 did it give?
A: 6.49 µM

Q: What about the IC90 of the same compound?
A: > 7.09 µM

Q: What does the source list for `CCOC(=O)c1nnsc1[S+]([O-])c1ccc(Cl)cc1` (stereo not given)?
A: IC50: > 10.4 µM; IC90: > 10.4 µM

Q: How did the IC50 turn out when `COC(=O)c1c(NC(=O)c2cccnc2)c2cc(NCC(C)C)cnc2n1CC(C)C` was run?
A: > 7.79 µM

Q: What about the IC90 of the same compound?
A: > 7.79 µM

Q: With `COc1cc(-n2nnnc2-c2ccc([N+](=O)[O-])cc2)c(Cl)cc1Cl` as the compound, how does the IC50 read?
A: > 9.01 µM

Q: And the IC90?
A: > 9.01 µM

Q: How did the IC50 turn out when `COc1cc(NC(=O)c2sccc2Oc2ccccc2[N+](=O)[O-])c(Cl)cc1Cl` was run?
A: > 7.51 µM

Q: What about the IC90 of the same compound?
A: > 7.51 µM

Q: For `Clc1ccc2[nH]c(-c3cccs3)c(-c3ccccc3)c2c1`, which IC50 is on record?
A: 5.01 µM

Q: What about the IC90 of the same compound?
A: > 10.7 µM

Q: `CCn1nc(C)c(CN2CCC3(CC2)C(=O)N(Cc2ccccc2)C(=O)N3CCc2ccccc2)c1C` was tested. Which IC50 did it give?
A: 2.92 µM

Q: And the IC90?
A: > 6.6 µM

Q: `FC(F)(F)c1cnc(N/N=C/c2ccccn2)c(Cl)c1` was tested. Which IC50 did it give?
A: 3.33 µM

Q: What about the IC90 of the same compound?
A: 4 µM

Q: What does the source list for `CN(NC(=O)c1cccc(C(F)(F)F)c1)c1c(C#N)c(C(F)(F)F)nn1C`?
A: IC50: > 8.43 µM; IC90: > 8.43 µM

Q: How did the IC50 turn out when `CC(=N\Nc1ccc(F)cc1)/C(=N/O)C(=O)Nc1ccccc1` was run?
A: > 10.5 µM

Q: What about the IC90 of the same compound?
A: > 10.5 µM

Q: `CNC(=O)c1nn(CCc2ccccc2)c2c1CC(NCCC(C)C)CC2` (stereo not given) was tested. Which IC50 did it give?
A: > 8.95 µM

Q: What about the IC90 of the same compound?
A: > 8.95 µM

Q: For `CN(C)C(=O)N1CCC(C(=O)N2CC(=O)N(C3CCCCC3)CC(OCc3ccncc3)C2)CC1` (stereo not given), which IC50 is on record?
A: > 6.8 µM

Q: And the IC90?
A: > 6.8 µM

Q: For `N#Cc1[nH]c2ccc(Cl)cc2c1-c1ccccc1`, which IC50 is on record?
A: > 13.1 µM

Q: And the IC90?
A: > 13.1 µM

Q: With `CC(C)N1C(=O)N(CCc2ccccc2)C2(CCN(C3Cc4ccccc4C3)CC2)C1=O` as the compound, how does the IC50 read?
A: 6.55 µM

Q: And the IC90?
A: > 7.65 µM

Q: How did the IC50 turn out when `CCN1CCC(Nc2cnc3c(c2)c(NC(=O)Cc2ccccc2)c(C(=O)OC)n3CC(C)C)CC1` was run?
A: 5.59 µM

Q: What about the IC90 of the same compound?
A: > 6.71 µM

Q: With `C/C(=C\c1ccco1)CN1CCc2c(c(C(=O)NCc3ccccn3)nn2CCc2ccccc2)C1` as the compound, how does the IC50 read?
A: > 6.85 µM

Q: What about the IC90 of the same compound?
A: > 6.85 µM

Q: With `O=C(Nc1nc(=O)n(C(=O)c2cccs2)s1)c1ccccc1` as the compound, how does the IC50 read?
A: > 9.96 µM

Q: What about the IC90 of the same compound?
A: > 9.96 µM

Q: Which IC50 does the source give for `COC(=O)c1c(NC(=O)c2ccoc2)c2cc(NC(C)CC(F)(F)F)cnc2n1CC(C)C` (stereo not given) here?
A: > 7.07 µM

Q: And the IC90?
A: > 7.07 µM

Q: `COc1ccc(CNCc2ccc3ccccc3c2)cc1` was tested. Which IC50 did it give?
A: > 11.9 µM

Q: And the IC90?
A: > 11.9 µM

Q: With `Cc1ccccc1-c1ccc(CN2CCC3(CC2)C(=O)N(Cc2cccnc2)C(=O)N3C)cc1` as the compound, how does the IC50 read?
A: 2.36 µM

Q: What about the IC90 of the same compound?
A: 2.76 µM

Q: Which IC50 does the source give for `N#CCCC(C#N)(c1ccc(F)cc1)c1cccc(F)c1C#N` (stereo not given) here?
A: > 10.7 µM

Q: And the IC90?
A: > 10.7 µM

Q: Which results are given for `CCN1C(=O)N(C2Cc3ccccc3C2)C(=O)C12CCN(Cc1c[nH]nc1-c1ccc(F)cc1)CC2`?
A: IC50: 4.54 µM; IC90: > 6.77 µM

Q: How did the IC50 turn out when `COc1ccc(CCn2nc(C(=O)N(C)C)c3c2CCN(CCCc2ccccc2)C3)cc1` was run?
A: > 7.39 µM

Q: What about the IC90 of the same compound?
A: > 7.39 µM

Q: `COCCn1c(C(=O)OC)c(NC(=O)c2ccco2)c2cc(NC(C)Cc3ccc(C)cc3)cnc21` (stereo not given) was tested. Which IC50 did it give?
A: 3.69 µM

Q: And the IC90?
A: > 6.73 µM

From ChEMBL document CHEMBL4483862, “Open-source discovery of chemical leads for next-generation chemoprotective antimalarials” (2018)
